# According to ChEMBL document CHEMBL1124016, “Antihypertensive activity in a series of 1-piperazino-3-phenylindans with potent 5-HT2-antagonistic activity” (J Med Chem, 1988):
# Columns and labels:
# [1] = target: T1, Adrenergic receptor alpha-1 (Rattus norvegicus, UniProt P15823+P23944+P43140); assay: Inhibition of [3H]prazosin binding to alpha-1 adrenergic receptor from rat cortical membranes; assay type: cell membranes, Membrane
# T1 sequence (P15823 whole entry): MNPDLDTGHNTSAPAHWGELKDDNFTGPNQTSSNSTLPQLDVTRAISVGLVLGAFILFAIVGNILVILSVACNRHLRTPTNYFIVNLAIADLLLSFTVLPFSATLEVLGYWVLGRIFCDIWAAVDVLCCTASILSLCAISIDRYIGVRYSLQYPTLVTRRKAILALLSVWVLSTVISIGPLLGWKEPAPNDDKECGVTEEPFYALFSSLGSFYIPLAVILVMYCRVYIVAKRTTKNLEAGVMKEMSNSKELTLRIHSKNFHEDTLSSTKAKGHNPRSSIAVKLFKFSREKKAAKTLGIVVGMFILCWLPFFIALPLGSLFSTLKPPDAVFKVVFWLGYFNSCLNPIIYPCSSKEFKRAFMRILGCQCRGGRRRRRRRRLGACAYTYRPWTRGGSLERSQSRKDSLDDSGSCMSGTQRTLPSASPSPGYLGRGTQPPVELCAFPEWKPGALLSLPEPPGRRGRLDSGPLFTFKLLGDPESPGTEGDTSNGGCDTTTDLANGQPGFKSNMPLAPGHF
# T1 sequence (P23944 whole entry): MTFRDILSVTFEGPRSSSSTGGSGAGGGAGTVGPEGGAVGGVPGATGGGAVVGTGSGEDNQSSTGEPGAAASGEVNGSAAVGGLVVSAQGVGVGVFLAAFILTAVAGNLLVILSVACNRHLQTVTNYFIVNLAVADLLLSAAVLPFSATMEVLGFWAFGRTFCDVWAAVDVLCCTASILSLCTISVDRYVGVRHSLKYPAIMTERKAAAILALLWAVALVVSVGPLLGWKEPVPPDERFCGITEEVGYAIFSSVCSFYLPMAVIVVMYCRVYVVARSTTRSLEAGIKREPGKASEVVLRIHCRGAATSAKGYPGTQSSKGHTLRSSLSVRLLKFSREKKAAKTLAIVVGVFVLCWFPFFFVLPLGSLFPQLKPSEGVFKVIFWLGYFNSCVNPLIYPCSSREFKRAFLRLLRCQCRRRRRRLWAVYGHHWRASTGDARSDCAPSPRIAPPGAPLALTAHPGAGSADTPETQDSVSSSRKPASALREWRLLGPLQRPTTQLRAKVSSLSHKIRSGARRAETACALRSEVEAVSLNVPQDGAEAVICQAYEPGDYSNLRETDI
# T1 sequence (P43140 whole entry): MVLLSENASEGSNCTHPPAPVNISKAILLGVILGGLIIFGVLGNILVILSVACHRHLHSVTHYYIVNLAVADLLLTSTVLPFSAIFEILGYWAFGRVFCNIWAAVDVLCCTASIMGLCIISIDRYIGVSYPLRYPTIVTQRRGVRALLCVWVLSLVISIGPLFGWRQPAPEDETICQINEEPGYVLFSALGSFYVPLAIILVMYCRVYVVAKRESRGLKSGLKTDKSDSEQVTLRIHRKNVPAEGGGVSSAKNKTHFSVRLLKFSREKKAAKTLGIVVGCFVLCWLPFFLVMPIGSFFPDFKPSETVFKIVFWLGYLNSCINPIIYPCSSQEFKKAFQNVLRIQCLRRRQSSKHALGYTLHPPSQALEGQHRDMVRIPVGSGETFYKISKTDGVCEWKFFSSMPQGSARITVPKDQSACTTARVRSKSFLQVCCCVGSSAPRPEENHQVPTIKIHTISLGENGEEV
# Rattus norvegicus [2] = assay: Percent reduction of systolic arterial blood pressure(SAP) in spontaneously hypertensive rat after 10 min at intraperitoneal administration of 5 mg/kg; assay type: functional
# [3] = target: Serotonin 2 (5-HT2) receptor (Rattus norvegicus, UniProt P30994+P08909+P14842); assay: Inhibition of [3H]spiperone binding to 5-hydroxytryptamine 2 receptor from rat cortical membranes; assay type: cell membranes, Membrane
# D(2) dopamine receptor = D(2) dopamine receptor (Rattus norvegicus, UniProt P61169); assay: Inhibition of [3H]spiperone binding to Dopamine receptor D2 from rat striatal membranes; assay type: cell membranes, Membrane
# Mus musculus = species on record: Mus musculus; assay: Inhibition of methyl phenidate induced stereotyped gnawing in mice; assay type: functional
# Rattus norvegicus [4] = assay: Percent reduction of diastolic arterial blood pressure(DAP) in spontaneously hypertensive rat after 10 min at intraperitoneal administration of 5 mg/kg; assay type: functional
# Rattus norvegicus [5] = species on record: Rattus norvegicus; assay: Ratio of phenylephrine ED50/ 5-HT ED50; assay type: functional
# Rattus norvegicus [6] = assay: Inhibition of phenylephrine induced pressor response in pithed rats (following i.v. administration of […]); assay type: functional; conditions: route intravenous
# Rattus norvegicus [7] = assay: Inhibition of 5-HT induced pressor response in pithed rats, after intravenous administration of 0.02 mg/kg; assay type: functional
# Rattus norvegicus [8] = assay: Inhibition of 5-HT induced pressor response in pithed rats, after intravenous administration; assay type: functional
# Rattus norvegicus [9] = assay: Inhibition of 5-HT induced pressor response in pithed rats, after intravenous administration, activity is expressed as ED50; assay type: functional
# Rattus norvegicus [10] = species on record: Rattus norvegicus; assay: Inhibition of L-5-HTP (L-5-hydroxytryptophan) induced head twitches in rat; assay type: functional
# [11] = target: Sodium-dependent dopamine transporter (Rattus norvegicus, UniProt P23977); assay: In vitro inhibition of [3H]dopamine uptake in rat brain synaptosomes; assay type: subcellular
# [12] = target: Sodium-dependent serotonin transporter (Rattus norvegicus, UniProt P31652); assay: In vitro inhibition of [3H]5-HT transporter uptake in rat brain synaptosomes; assay type: subcellular
# [13] = target: Norepinephrine transporter (Rattus norvegicus, UniProt Q9WTR4); assay: In vitro inhibition of [3H]norepinephrine uptake in rat brain synaptosomes; assay type: subcellular
# Rattus norvegicus [14] = assay: Percent reduction of blood pressure in spontaneously hypertensive rat after 10 min at intraperitoneal administration of 5 mg/kg; assay type: functional
# [15] = Rattus norvegicus, read-out: ED50
# Sequence of Sodium-dependent serotonin transporter (P31652 whole entry): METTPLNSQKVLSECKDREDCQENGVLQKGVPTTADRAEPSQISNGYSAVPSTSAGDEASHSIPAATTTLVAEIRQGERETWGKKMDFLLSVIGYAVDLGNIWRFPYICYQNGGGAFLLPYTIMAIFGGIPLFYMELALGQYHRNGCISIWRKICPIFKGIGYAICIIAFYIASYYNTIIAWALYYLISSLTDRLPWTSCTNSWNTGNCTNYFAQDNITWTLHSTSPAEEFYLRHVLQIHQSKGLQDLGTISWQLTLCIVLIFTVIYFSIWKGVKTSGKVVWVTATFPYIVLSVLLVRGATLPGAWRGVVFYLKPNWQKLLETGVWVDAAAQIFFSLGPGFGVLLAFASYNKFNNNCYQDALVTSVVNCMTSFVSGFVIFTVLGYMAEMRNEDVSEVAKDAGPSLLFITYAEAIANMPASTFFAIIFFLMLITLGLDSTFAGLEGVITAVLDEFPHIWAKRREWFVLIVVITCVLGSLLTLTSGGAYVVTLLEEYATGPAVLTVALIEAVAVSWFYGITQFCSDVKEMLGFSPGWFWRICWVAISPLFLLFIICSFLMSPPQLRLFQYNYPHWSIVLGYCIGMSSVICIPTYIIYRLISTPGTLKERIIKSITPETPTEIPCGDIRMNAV
# Sequence of Sodium-dependent dopamine transporter (P23977 whole entry): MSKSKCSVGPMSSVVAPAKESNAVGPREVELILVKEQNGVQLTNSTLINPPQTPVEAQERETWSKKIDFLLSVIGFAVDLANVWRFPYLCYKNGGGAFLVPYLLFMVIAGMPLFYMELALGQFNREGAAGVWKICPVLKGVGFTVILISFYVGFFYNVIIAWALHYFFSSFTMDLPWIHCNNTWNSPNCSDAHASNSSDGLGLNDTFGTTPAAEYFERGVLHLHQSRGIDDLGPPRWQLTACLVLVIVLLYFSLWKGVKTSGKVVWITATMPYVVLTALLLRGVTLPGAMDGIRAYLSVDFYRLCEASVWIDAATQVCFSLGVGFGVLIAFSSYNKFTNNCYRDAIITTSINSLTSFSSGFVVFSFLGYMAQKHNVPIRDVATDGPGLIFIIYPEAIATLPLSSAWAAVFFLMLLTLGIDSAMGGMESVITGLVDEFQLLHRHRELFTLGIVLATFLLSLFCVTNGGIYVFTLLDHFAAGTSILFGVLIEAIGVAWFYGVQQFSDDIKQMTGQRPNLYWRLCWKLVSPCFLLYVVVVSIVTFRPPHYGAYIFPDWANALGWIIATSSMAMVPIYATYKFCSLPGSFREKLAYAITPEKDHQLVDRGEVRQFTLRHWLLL
# Sequence of D(2) dopamine receptor (P61169 whole entry): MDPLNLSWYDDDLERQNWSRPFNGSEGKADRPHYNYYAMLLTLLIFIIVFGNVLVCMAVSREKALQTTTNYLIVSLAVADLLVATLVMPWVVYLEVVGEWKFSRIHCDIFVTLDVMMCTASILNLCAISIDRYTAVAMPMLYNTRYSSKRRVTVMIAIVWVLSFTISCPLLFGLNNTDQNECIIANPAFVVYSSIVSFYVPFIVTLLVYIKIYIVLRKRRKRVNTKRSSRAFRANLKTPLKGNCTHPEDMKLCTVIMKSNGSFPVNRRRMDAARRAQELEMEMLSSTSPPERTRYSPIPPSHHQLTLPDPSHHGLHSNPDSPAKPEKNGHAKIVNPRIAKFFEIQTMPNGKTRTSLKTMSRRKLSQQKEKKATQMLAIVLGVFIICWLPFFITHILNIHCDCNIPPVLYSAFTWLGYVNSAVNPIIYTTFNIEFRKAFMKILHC
# Sequence of Norepinephrine transporter (Q9WTR4 whole entry): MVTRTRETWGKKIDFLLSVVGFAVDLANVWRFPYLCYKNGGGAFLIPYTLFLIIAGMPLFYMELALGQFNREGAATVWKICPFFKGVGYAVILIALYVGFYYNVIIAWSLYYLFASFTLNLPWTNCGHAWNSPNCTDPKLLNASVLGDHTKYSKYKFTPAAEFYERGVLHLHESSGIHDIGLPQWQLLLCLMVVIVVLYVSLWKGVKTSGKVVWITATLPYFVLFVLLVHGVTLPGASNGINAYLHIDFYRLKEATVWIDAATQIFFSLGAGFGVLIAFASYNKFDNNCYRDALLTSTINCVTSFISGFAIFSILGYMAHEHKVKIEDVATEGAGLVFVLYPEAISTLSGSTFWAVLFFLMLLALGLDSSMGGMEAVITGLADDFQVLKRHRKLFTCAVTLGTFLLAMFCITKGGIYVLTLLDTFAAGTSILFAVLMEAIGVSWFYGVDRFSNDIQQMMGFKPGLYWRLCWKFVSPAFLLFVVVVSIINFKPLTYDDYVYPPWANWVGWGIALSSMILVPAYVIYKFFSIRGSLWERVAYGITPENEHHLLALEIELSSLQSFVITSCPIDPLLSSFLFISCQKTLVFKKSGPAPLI
SMILES,IC50 [1],Reduction (Rattus norvegicus [2]),IC50 [3],IC50 (D(2) dopamine receptor),ED50 (Mus musculus),Increase (Rattus norvegicus [4]),Ratio (Rattus norvegicus [5]),Change (Rattus norvegicus [6]),Change (Rattus norvegicus [7]),ED50 (Rattus norvegicus [8]),ED50 (Rattus norvegicus [9]),Reduction (Rattus norvegicus [4]),ED50 (Rattus norvegicus [10]),IC50 [11],Increase (Rattus norvegicus [2]),IC50 [12],IC50 [13],Reduction (Rattus norvegicus [14]),ED50 (Rattus norvegicus [10]; [15])
CC(C)N1CCN(CCN2CCN(C3CC(c4ccc(F)cc4)c4ccc(F)cc43)CC2)C1=O.Cl.Cl (configuration not stated),28 nM,-5%,4.8 nM,35 nM,> 73 µmol/kg,0%,–,–,–,–,–,–,–,–,–,–,–,–,–
O.O=c1[nH]c2ccccc2c(=O)n1CCN1CCN(C2CC(c3ccc(F)cc3)c3ccc(F)cc32)CC1 (configuration not stated),5.3 nM,-29%,2.9 nM,19 nM,> 79 µmol/kg,–,13,-57%,-52%,0.032 µmol/kg,0.43 µmol/kg,-46%,2.3 µmol/kg,–,–,–,–,–,–
O=C(O)/C=C\C(=O)O.O=C(O)/C=C\C(=O)O.O=C1NCCN1CCN1CCN([C@H]2C[C@H](c3ccc(F)cc3)c3ccc(F)cc32)CC1,900 nM,–,320 nM,4500 nM,> 61 µmol/kg,4%,–,11%,2%,0.93 µmol/kg,–,–,20 µmol/kg,67 nM,6%,2200 nM,17 nM,–,–
Cl.Cl.O=C1OCCN1CCN1CCN(C2CC(c3ccc(F)cc3)c3ccccc32)CC1 (configuration not stated),–,-15%,130 nM,–,> 83 µmol/kg,–,–,–,–,–,–,-19%,–,–,–,–,–,–,–
Cl.Cl.O=c1[nH]c2ccccc2c(=O)n1CCN1CCN(C2CC(c3ccc(F)cc3)c3ccccc32)CC1 (configuration not stated),5.5 nM,–,3.4 nM,60 nM,> 70 µmol/kg,–,7.7,-42%,-35%,0.1 µmol/kg,0.77 µmol/kg,–,–,–,–,–,–,-22%,4.4 µmol/kg
Fc1ccc([C@H]2C[C@H](N3CCNCC3)c3ccccc32)cc1.O=C(O)/C=C\C(=O)O.O=C(O)/C=C\C(=O)O,540 nM,–,180 nM,8500 nM,> 76 µmol/kg,–,–,41%,-3%,–,–,–,–,220 nM,–,400 nM,140 nM,-2%,13 µmol/kg
O.OC1=NCCN1CCN1CCN(C2CC(c3ccc(O)cc3)c3ccccc32)CC1 (configuration not stated),560 nM,-6%,310 nM,4000 nM,> 98 µmol/kg,–,–,22%,-5%,–,–,-6%,> 49 µmol/kg,–,–,–,–,–,–
Cl.Cl.OC1=NCCN1CCCN1CCN(C2CC(c3ccc(F)cc3)c3ccc(F)cc32)CC1 (configuration not stated),12 nM,-12%,5.6 nM,46 nM,55 µmol/kg,–,87,–,–,–,2.7 µmol/kg,-19%,2 µmol/kg,–,–,–,–,–,–
O.O=C1NCCN1CCN1CCN([C@H]2C[C@H](c3ccc(F)cc3)c3ccccc32)CC1,540 nM,–,570 nM,13000 nM,> 97 µmol/kg,–,–,53%,-11%,2.7 µmol/kg,–,–,–,140 nM,–,9700 nM,69 nM,3%,> 97 µmol/kg
